Reference: patent US20240116985A1, “STAPLED PEPTIDES AND METHODS THEREOF” (priority 2020, published 2024)
Read-outs that look alike come from different tables or passages of the source.

Target: T1, full-length beta-Catenin (Uniprot ID P35222) (Homo sapiens, UniProt P35222)
T1 construct: 10 nM full-length beta-Catenin (Uniprot ID P35222)
T1 sequence (P35222 1-781): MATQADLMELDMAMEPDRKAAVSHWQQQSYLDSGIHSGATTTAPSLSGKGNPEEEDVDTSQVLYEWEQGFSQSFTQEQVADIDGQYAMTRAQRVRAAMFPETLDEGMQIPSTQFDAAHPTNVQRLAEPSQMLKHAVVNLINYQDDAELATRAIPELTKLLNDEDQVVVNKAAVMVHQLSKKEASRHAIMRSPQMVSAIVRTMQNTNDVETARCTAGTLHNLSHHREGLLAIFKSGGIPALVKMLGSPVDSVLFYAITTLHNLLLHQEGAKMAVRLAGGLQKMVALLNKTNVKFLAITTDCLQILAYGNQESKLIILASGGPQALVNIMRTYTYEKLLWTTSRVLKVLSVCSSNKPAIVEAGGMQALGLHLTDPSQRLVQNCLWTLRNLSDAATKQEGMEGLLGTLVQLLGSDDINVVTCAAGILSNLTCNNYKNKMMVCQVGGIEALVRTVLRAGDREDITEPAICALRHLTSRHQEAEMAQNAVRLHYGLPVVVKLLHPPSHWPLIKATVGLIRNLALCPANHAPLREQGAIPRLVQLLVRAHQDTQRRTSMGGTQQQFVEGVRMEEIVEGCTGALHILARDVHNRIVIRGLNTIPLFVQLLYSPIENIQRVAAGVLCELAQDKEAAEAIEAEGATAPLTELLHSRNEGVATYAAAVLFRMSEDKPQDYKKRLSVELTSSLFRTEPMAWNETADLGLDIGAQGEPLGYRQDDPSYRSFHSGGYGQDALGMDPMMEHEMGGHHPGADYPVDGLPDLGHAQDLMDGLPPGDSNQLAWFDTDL
Experiment: Fluorescence polarization IC50 (beta-catenin / 5FAM-TCF4 10-53 competition)
Format: binding

[1] = fluorescence polarization, read-out: beta-Catenin FP IC50
[2] = beta-Catenin FP IC50, fluorescence polarization
[3] = fluorescence polarization, beta-catenin, read-out: FP EC50

Structure (SMILES) | IC50 [1] [nM] | IC50 [2] [nM] | IC50 [3] [nM]
CC(=O)N1CCC[C@]12CC=CCCCC1(CCCC=CCCOC(=O)N3CC[C@@](C(=O)N[C@@H](Cc4ccccc4Cl)C(=O)N[C@@H](Cc4csc5ccccc45)C(=O)N[C@@H](C(N)=O)[C@H](C)O)(C3)NC(=O)[C@H](CC(N)=O)NC(=O)[C@H](Cc3ccccc3)NC(=O)[C@H](C)NC(=O)[C@H](C)NC(=O)[C@H](CC(=O)O)NC(=O)[C@H](CC(=O)O)NC1=O)NC(=O)[C@H](CC(C)(C)C)NC(=O)[C@H](CC(=O)O)NC2=O (stereo partly drawn) [I-1256, Ac-PL3-Asp-Npg-B5-Asp-Asp-Ala-Ala-Phe-Asn-PyrS1-2C1F-BztA-dThr-NH2] | 1470 |  | 
CC(=O)N1CCC[C@]12CC=CCCCC1(CCCC=CCCCOC(=O)N3CC[C@@](C(=O)N[C@@H](Cc4ccsc4)C(=O)N[C@@H](Cc4csc5ccccc45)C(=O)N[C@@H](CCC(N)=O)C(=O)NCc4ccccc4)(C3)NC(=O)[C@H](CC(N)=O)NC(=O)[C@H](Cc3ccccc3)NC(=O)[C@H](C)NC(=O)[C@H](C)NC(=O)[C@H](CC(=O)O)NC(=O)[C@H](CC(=O)O)NC1=O)NC(=O)[C@H](CC(C)(C)C)NC(=O)[C@H](CC(=O)O)NC2=O (stereo partly drawn) [I-1257, Ac-PL3-Asp-Npg-B5-Asp-Asp-Ala-Ala-Phe-Asn-PyrS2-3Thi-BztA-Gln-NHBn] | 11 |  | 
C[C@@H]1NC(=O)[C@H](C)NC(=O)[C@H](CC(=O)O)NC(=O)[C@H](CC(=O)O)NC(=O)C2(CCCC=CCCCOC(=O)N3CC[C@@](C(=O)N[C@@H](Cc4ccccc4)C(=O)N[C@@H](Cc4csc5ccccc45)C(=O)N[C@@H](CO)C(N)=O)(C3)NC(=O)[C@H](CO)NC(=O)[C@H](Cc3ccccc3)NC1=O)CCCC=CC[C@]1(CCCN1C(=O)CCCN(C)C)C(=O)N[C@@H](CC(=O)O)C(=O)N[C@@H](CC(C)(C)C)C(=O)N2 (stereo partly drawn) [I-1354, NdiMeButC-PL3-Asp-Npg-B5-Asp-Asp-Ala-Ala-Phe-Ser-PyrS2-Phe-BztA-Ser-NH2] | 48 |  | 
CCCCCCCC(=O)N1CCC[C@]12CC=CCCCC1(CCCC=CCCCOC(=O)N3CC[C@@](C(=O)N[C@@H](Cc4ccccc4)C(=O)N[C@@H](Cc4csc5ccccc45)C(=O)N[C@@H](CO)C(N)=O)(C3)NC(=O)[C@H](CO)NC(=O)[C@H](Cc3ccccc3)NC(=O)[C@H](C)NC(=O)[C@H](C)NC(=O)[C@H](CC(=O)O)NC(=O)[C@H](CC(=O)O)NC1=O)NC(=O)[C@H](CC(C)(C)C)NC(=O)[C@H](CC(=O)O)NC2=O (stereo partly drawn) [I-1355, Oct-PL3-Asp-Npg-B5-Asp-Asp-Ala-Ala-Phe-Ser-PyrS2-Phe-BztA-Ser-NH2] | 213 |  | 
CC(=O)N1CCC[C@]12CC=CCCCC1(CCCC=CCCCCCC[C@@](C)(C(=O)N[C@@H](Cc3ccsc3)C(=O)N[C@@H](Cc3csc4ccccc34)C(=O)N[C@H](CO)[C@@H](C)O)NC(=O)[C@H](CCO)NC(=O)[C@H](Cc3ccccc3)NC(=O)[C@H](C)NC(=O)[C@H](C)NC(=O)[C@H](CC(=O)O)NC(=O)[C@H](CC(=O)O)NC1=O)NC(=O)[C@H](CC(C)(C)C)NC(=O)[C@H](CC(=O)O)NC2=O (stereo partly drawn) [I-1390, Ac-PL3-Asp-Npg-B5-Asp-Asp-Ala-Ala-Phe-Hse-S8-3Thi-BztA-Thro1] | 16 |  | 
CC(=O)N1CCC[C@]12CC=CCCCC1(CCCC=CCCCCCC[C@@](C)(C(=O)N[C@@H](Cc3ccccc3C(F)(F)F)C(=O)N[C@@H](Cc3csc4ccccc34)C(=O)N[C@H](CO)[C@@H](C)O)NC(=O)[C@H](CCO)NC(=O)[C@H](Cc3ccccc3)NC(=O)[C@H](C)NC(=O)[C@H](C)NC(=O)[C@H](CC(=O)O)NC(=O)[C@H](CC(=O)O)NC1=O)NC(=O)[C@H](CC(C)(C)C)NC(=O)[C@H](CC(=O)O)NC2=O (stereo partly drawn) [I-1398, Ac-PL3-Asp-Npg-B5-Asp-Asp-Ala-Ala-Phe-Hse-S8-2F3MeF-BztA-Thro1] | 73 |  | 
CC(=O)N1CCC[C@]12CC=CCCCC1(CCCC=CCCCOC(=O)N3CC[C@@](C(=O)N[C@@H](Cc4ccccc4)C(=O)N[C@@H](Cc4csc5ccccc45)C(=O)N[C@@H](CCC(N)=O)C(N)=O)(C3)NC(=O)[C@H](CC(C)C)NC(=O)[C@H](Cc3ccccc3)NC(=O)[C@H](C)NC(=O)[C@H](C)NC(=O)[C@H](CC(=O)O)NC(=O)[C@H](CC(=O)O)NC1=O)NC(=O)[C@H](CC(C)C)NC(=O)[C@H](CC(=O)O)NC2=O (stereo partly drawn) [I-1402, Ac-PL3-Asp-Leu-B5-Asp-Asp-Ala-Ala-Phe-Leu-PyrS2-Phe-BztA-Gln-NH2] | 9 |  | 
CC(=O)N1CCC[C@]12CC=CCCCC1(CCCC=CCCCOC(=O)N3CC[C@@](C(=O)N[C@@H](Cc4ccsc4)C(=O)N[C@@H](Cc4csc5ccccc45)C(=O)N[C@@H](CC(C)C)C(N)=O)(C3)NC(=O)[C@H](CC(C)C)NC(=O)[C@H](Cc3ccccc3)NC(=O)[C@H](C)NC(=O)[C@H](C)NC(=O)[C@H](CC(=O)O)NC(=O)[C@H](CC(=O)O)NC1=O)NC(=O)[C@H](CC(N)=O)NC(=O)[C@H](CC(=O)O)NC2=O (stereo partly drawn) [I-1413, Ac-PL3-Asp-Asn-B5-Asp-Asp-Ala-Ala-Phe-Leu-PyrS2-3Thi-BztA-Leu-NH2] |  | 74 | 
CC(=O)N1CCC[C@]12CC=CCCCC1(CCCC=CCCCOC(=O)N3CC[C@@](C(=O)N[C@@H](Cc4ccsc4)C(=O)N[C@@H](Cc4csc5ccccc45)C(=O)N[C@@H](CC(C)C)C(N)=O)(C3)NC(=O)[C@H](CC(C)C)NC(=O)[C@H](Cc3ccccc3)NC(=O)[C@H](C)NC(=O)[C@H](C)NC(=O)[C@H](CC(=O)O)NC(=O)[C@H](CC(=O)O)NC1=O)NC(=O)[C@H]([C@@H](C)O)NC(=O)[C@H](CC(=O)O)NC2=O (stereo partly drawn) [I-1415, Ac-PL3-Asp-Thr-B5-Asp-Asp-Ala-Ala-Phe-Leu-PyrS2-3Thi-BztA-Leu-NH2] |  | 72 | 
CC(=O)N1CCC[C@]12CC=CCCCC1(CCCC=CCCCOC(=O)N3CC[C@@](C(=O)N[C@@H](Cc4ccccc4Cl)C(=O)N[C@@H](Cc4csc5ccccc45)C(=O)N[C@@H](CC(C)C)C(N)=O)(C3)NC(=O)[C@H](CC(C)C)NC(=O)[C@H](Cc3ccccc3)NC(=O)[C@H](C)NC(=O)[C@H](C)NC(=O)[C@H](CC(=O)O)NC(=O)[C@H](CC(=O)O)NC1=O)NC(=O)[C@H](CC(C)(C)C)NC(=O)[C@H](CC(=O)O)NC2=O (stereo partly drawn) [I-1416, Ac-PL3-Asp-Npg-B5-Asp-Asp-Ala-Ala-Phe-Leu-PyrS2-2C1F-BztA-Leu-NH2] | 57 |  | 57
CC(=O)N1CCC[C@]12CC=CCCCC1(CCCC=CCCCOC(=O)N3CC[C@@](C(=O)N[C@@H](Cc4ccccc4Cl)C(=O)N[C@@H](Cc4csc5ccccc45)C(=O)N[C@@H](CC(C)C)C(N)=O)(C3)NC(=O)[C@H](CC(C)C)NC(=O)[C@H](Cc3ccccc3)NC(=O)[C@H](C)NC(=O)[C@H](C)NC(=O)[C@H](CC(=O)O)NC(=O)[C@H](CC(=O)O)NC1=O)NC(=O)[C@H](CC(C)(C)C)NC(=O)[C@H](CC(=O)O)NC2=O (stereo partly drawn) [I-1417, Ac-PL3-Asp-Npg-B5-Asp-Asp-Ala-Ala-Phe-Leu-PyrS2-2C1F-BztA-Leu-NH2] | 198 |  | 198
CC(=O)N1CCC[C@]12CC=CCCCC1(CCCC=CCCCOC(=O)N3CC[C@@](C(=O)N[C@@H](Cc4ccccc4Cl)C(=O)N[C@@H](Cc4csc5ccccc45)C(=O)N[C@@H](CC(C)C)C(N)=O)(C3)NC(=O)[C@H](CC(C)C)NC(=O)[C@H](Cc3ccccc3)NC(=O)[C@H](C)NC(=O)[C@H](C)NC(=O)[C@H](CC(=O)O)NC(=O)[C@H](CC(=O)O)NC1=O)NC(=O)[C@H](CC(C)C)NC(=O)[C@H](CC(=O)O)NC2=O (stereo partly drawn) [I-1419, Ac-PL3-Asp-Leu-B5-Asp-Asp-Ala-Ala-Phe-Leu-PyrS2-2C1F-BztA-Leu-NH2] | 152 |  | 152
CCCC[C@@H]1NC(=O)[C@H](CC(=O)O)NC(=O)[C@]2(CC=CCCCC3(CCCC=CCCCOC(=O)N4CC[C@@](C(=O)N[C@@H](Cc5ccccc5Cl)C(=O)N[C@@H](Cc5csc6ccccc56)C(=O)N[C@@H](CC(C)C)C(N)=O)(C4)NC(=O)[C@H](CC(C)C)NC(=O)[C@H](Cc4ccccc4)NC(=O)[C@H](C)NC(=O)[C@H](C)NC(=O)[C@H](CC(=O)O)NC(=O)[C@H](CC(=O)O)NC3=O)NC1=O)CCCN2C(C)=O (stereo partly drawn) [I-1420, Ac-PL3-Asp-nLeu-B5-Asp-Asp-Ala-Ala-Phe-Leu-PyrS2-2C1F-BztA-Leu-NH2] | 124 |  | 124
CCCC[C@@H]1NC(=O)[C@H](CC(=O)O)NC(=O)[C@]2(CC=CCCCC3(CCCC=CCCCOC(=O)N4CC[C@@](C(=O)N[C@@H](Cc5ccccc5Cl)C(=O)N[C@@H](Cc5csc6ccccc56)C(=O)N[C@@H](CC(C)C)C(N)=O)(C4)NC(=O)[C@H](CC(C)C)NC(=O)[C@H](Cc4ccccc4)NC(=O)[C@H](C)NC(=O)[C@H](C)NC(=O)[C@H](CC(=O)O)NC(=O)[C@H](CC(=O)O)NC3=O)NC1=O)CCCN2C(C)=O (stereo partly drawn) [I-1421, Ac-PL3-Asp-nLeu-B5-Asp-Asp-Ala-Ala-Phe-Leu-PyrS2-2C1F-BztA-Leu-NH2] | 134 |  | 134
CC(=O)N1CCC[C@]12CC=CCCCC1(CCCC=CCCCOC(=O)N3CC[C@@](C(=O)N[C@@H](Cc4ccccc4Cl)C(=O)N[C@@H](Cc4csc5ccccc45)C(=O)N[C@@H](CC(C)C)C(N)=O)(C3)NC(=O)[C@H](CC(C)C)NC(=O)[C@H](Cc3ccccc3)NC(=O)[C@H](C)NC(=O)[C@H](C)NC(=O)[C@H](CC(=O)O)NC(=O)[C@H](CC(=O)O)NC1=O)NC(=O)[C@H](CC(N)=O)NC(=O)[C@H](CC(=O)O)NC2=O (stereo partly drawn) [I-1422, Ac-PL3-Asp-Asn-B5-Asp-Asp-Ala-Ala-Phe-Leu-PyrS2-2C1F-BztA-Leu-NH2] |  | 388 | 
